From PMC9806845, “Recombinant actin-depolymerizing factor of the apicomplexan Neospora caninum (NcADF) is susceptible to oxidation” (Frontiers in Cellular and Infection Microbiology, 2022)

Molecular target: T1, NcADF (Neospora caninum, UniProt F0VCT8)
T1 construct: gene NCLIV_012510; N-terminal 6xHis tag, pET28(a), E. coli BL21(DE3), IMAC; 18 kDa; cysteines at 11, 58, 65, 75; TCEP-reduced before assay
T1 sequence (F0VCT8 1-118): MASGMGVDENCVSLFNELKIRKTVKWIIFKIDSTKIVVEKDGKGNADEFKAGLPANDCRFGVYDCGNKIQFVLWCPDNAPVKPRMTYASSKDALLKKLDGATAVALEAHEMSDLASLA
Test: DTNB free-thiol assay; also biotin-iodoacetamide alkylation and SDS-PAGE dimerization
Type: biochemical
Conditions: covalent (cysteine oxidation, reversible disulfide dimers); 25 uM protein, 20 mM Tris pH 7.0, 30 min

O=S(=O)(O)CCNCl [NCT, N-chlorotaurine]
DTNB free-thiol assay; also biotin-iodoacetamide alkylation and SDS-PAGE dimeriz: micromolar concentration of NCT, but not of H2O2, was sufficient to oxidize the protein
